This is an account of results in patent US4066768A, “Derivatives of 1-phenoxy-3-amino-propan-2-ol” (Cassella Farbwerke Mainkur Aktiengesellschaft, priority 1973, dated 1978).

For test [1], the target named is T1, β2-receptors of the cardiovascular system (Canis lupus familiaris, UniProt P54833).
T1 construct: from tissue; host or cells: femoral artery vascular bed of anaesthetised mongrel dogs, in vivo
Kind of test: Inhibition of isoproterenol-induced alteration of peripheral (femoral artery) perfusion in anaesthetised dogs (β2-receptor inhibition). The class given is in vivo, mongrel dogs. Particulars: for ED50: dog, iv, read-out: β2-receptor inhibition ED 50; for Relative β2-receptor inhibition (reference substance = 100): relative ED 50, dogs. How it is done: (§1) The blocking action of the compounds according to the invention on the β1-receptors of the heart and on the β2-receptors of the cardiovascular system was investigated as follows: the blood pressure in the left-hand ventricle was measured on mongrel dogs of both sexes under an anaesthesia by Chloralose-urethane-morphine and the pressure signal was continuously differentiated by means of an analogue computer (BRUSH Instruments, Cleveland/Ohio) and, inter alia, the rate of pressure increase (Dp/dt) was recorded. In addition, the perfusion of a femoral artery was measured by means of an electromagnetic flow-meter (Model […] of Messrs. Statham) and the perfusion was recorded in ml/minute. […] DUNLOP and […]: Selective blockade of adrenoceptive beta-receptors in the heart. Brit. J. Pharmac. Chemother. (1968) 32, 201-218). […] The higher this quotient is, the better the cardioselective action.

Test [2] addresses T2, β1-receptors of the heart (Canis lupus familiaris, UniProt P79148).
T2 construct: from tissue; host or cells: heart (left ventricle) of anaesthetised mongrel dogs, in vivo
The experiment in a line: Inhibition of isoproterenol-induced increase in rate of pressure rise (Dp/dt max.) in left ventricle of anaesthetised dogs (β1-receptor inhibition). The class given is in vivo, mongrel dogs. The settings on record: for ED50: dog, iv, read-out: β1-receptor inhibition ED 50; for Quotient: ED 50 of β2-receptor inhibition / ED 50 of β1-receptor inhibition / Relative quotient, on basis of reference substance = 1 / Relative β1-receptor inhibition (reference substance = 100): dogs; for Quotient: ED 50 of β2-receptor inhibition / ED 50 of β1-receptor inhibition: cardioselectivity, higher = better; for Relative quotient, on basis of reference substance = 1: relative cardioselectivity factor; for Relative β1-receptor inhibition (reference substance = 100): relative ED 50, lower = more active. How it is done: as §1

A further test has as its target T3, tracheal β2-receptors (Cavia porcellus, UniProt Q8K4Z4).
T3 construct: isolated tracheal chain of guinea pigs; from tissue; host or cells: isolated guinea pig tracheal chain
Kind of test: Inhibition of isoproterenol-induced relaxation of contracted isolated tracheal chain (β2-receptor inhibition). More on the design: species or system guinea pigs. The procedure:
The isoproterenol-induced relaxation of contracted isolated tracheal chain of guinea pigs represents the response of the tracheal β2-receptors. The bath concentrations of the antagonists which reduce the isoproterenol effects by 50% were determined: ED-50 : g/ml bath.

In another test the test system is cardiac β1-receptors. The experiment in a line: Inhibition of isoproterenol-induced increase in heart rate in anaesthetized guinea pigs (β1-receptor inhibition). In kind it is in vivo. Particulars: for β1-receptor inhibition, parameter: heart rate response to isoproterenol: ED-50: i.v., guinea pigs anaesthetized with urethane, isoproterenol 0.5 gamma/animal. How it is done: The isoproterenol-induced increase in heart rate in anaesthetized animals represents mainly the response of the cardiac β1-receptors. The dose of the antagonists (mg/kg i.v.) which inhibits this response of isoproterenol (0.5 gamma/animal) in guinea pigs, anaesthetized with urethane, by 50% : ED-50 was determined.

T2 sequence (P79148 whole entry): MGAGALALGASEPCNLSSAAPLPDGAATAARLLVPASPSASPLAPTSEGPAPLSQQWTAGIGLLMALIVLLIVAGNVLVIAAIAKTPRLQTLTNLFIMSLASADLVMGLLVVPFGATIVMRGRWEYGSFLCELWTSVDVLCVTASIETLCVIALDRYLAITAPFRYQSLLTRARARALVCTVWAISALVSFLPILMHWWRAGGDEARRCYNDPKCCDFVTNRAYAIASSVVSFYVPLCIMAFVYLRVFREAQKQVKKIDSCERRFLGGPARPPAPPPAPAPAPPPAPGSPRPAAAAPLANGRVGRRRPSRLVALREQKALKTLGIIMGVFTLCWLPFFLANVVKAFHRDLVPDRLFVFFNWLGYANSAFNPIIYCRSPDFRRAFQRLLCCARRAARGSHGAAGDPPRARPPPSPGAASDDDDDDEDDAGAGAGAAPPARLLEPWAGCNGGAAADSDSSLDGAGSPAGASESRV
T1 sequence (P54833 whole entry): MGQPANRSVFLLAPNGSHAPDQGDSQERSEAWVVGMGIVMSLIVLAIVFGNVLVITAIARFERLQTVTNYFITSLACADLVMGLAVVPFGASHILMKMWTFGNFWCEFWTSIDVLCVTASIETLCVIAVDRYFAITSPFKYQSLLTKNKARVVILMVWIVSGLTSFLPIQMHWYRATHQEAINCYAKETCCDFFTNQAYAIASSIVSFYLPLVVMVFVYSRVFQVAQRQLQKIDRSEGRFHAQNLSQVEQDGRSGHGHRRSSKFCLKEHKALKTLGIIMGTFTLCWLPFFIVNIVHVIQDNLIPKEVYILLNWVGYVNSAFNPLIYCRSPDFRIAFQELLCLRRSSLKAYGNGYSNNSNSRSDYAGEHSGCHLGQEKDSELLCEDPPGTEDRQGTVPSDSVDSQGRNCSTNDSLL
T3 sequence (Q8K4Z4 whole entry): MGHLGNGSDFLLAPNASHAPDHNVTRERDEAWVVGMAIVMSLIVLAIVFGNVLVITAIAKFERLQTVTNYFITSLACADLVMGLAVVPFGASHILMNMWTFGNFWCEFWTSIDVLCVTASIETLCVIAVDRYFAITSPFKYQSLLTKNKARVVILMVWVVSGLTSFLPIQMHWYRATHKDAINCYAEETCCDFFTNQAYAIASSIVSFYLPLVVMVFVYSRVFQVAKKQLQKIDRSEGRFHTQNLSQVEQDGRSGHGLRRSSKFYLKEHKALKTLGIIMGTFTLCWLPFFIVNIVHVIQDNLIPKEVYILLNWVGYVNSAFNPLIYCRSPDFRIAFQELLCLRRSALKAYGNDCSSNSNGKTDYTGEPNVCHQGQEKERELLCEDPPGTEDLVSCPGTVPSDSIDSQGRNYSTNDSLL

Consider `Cc1ccc(C(O)CC(C)NCC(O)COc2ccc(OCCO)cc2)cn1` (centres unmarked) [1-(-p-[2-Hydroxy-ethoxy]-henoxy)-3-(1-[2-methyl-pyridyl-5]-1-hydroxy-butyl(3)-amino)-propan-2-ol], for which, in test [1], the ED50 came to 8.14 mg/kg and the “Relative β2-receptor inhibition (reference substance = 100)” value (“Relative β2-receptor inhibition” for short) is on record as 30.7. Also, in test [2], the ED50 came to 0.073 mg/kg; the “Quotient: ED 50 of β2-receptor inhibition / ED 50 of β1-receptor inhibition” value turned out to be 112; the “Relative quotient, on basis of reference substance = 1” value (“Relative quotient, on basis” below) came out at 1; the “Relative β1-receptor inhibition (reference substance = 100)” value (“Relative β1-receptor inhibition” for short) was determined as 30.7.

Regarding `C=CCNC(=O)Nc1ccc(OCC(O)CNC(C)CC(O)c2cnc(C)nc2C)cc1` (centres unmarked) [1-(p-Allylureido-phenoxy)-3-(1-[2,4-dimethyl-pyrimidyl-5]-1-hydroxy-butyl(3)-amino)-propan-2-ol], in test [2], the ED50 was 0.019 mg/kg and the “Relative β1-receptor inhibition” value worked out at 7.9.

For the compound `Cc1ncc(C(O)CC(C)NCC(O)COc2ccc(NC(=O)NC3CCCCC3)cc2)c(C)n1` (centres unmarked) [1-(p-Cyclohexylureido-phenoxy)-3-(1-[2,4-dimethyl-pyrimidyl-5] -1-hydroxy-butyl(3)-amino)-propan-2-ol], in test [1], the ED50 was found to be 1.38 mg/kg and the “Relative β2-receptor inhibition” value is on record as 5.2. Moreover, in test [2], the ED50 was determined as 0.011 mg/kg; the “Quotient: ED 50 of β2-receptor inhibition / ED 50 of β1-receptor inhibition” value is recorded as 128; the “Relative quotient, on basis” value is 1.1; the “Relative β1-receptor inhibition” value was determined as 4.6.

On to `Cc1ccc(C(O)CC(C)NCC(O)COc2ccc(NC(=O)NC3CCCCC3)cc2)cn1` (centres unmarked) [1-(p-Cyclohexylureido-phenoxy)-3-(1-[2-methyl-pyridyl-5]-1-hydroxy-butyl(3)-amino)-propan-2-ol], for which, in test [1], the ED50 was 1.57 mg/kg and the “Relative β2-receptor inhibition” value turned out to be 5.9. Further, in test [2], the ED50 came out at 0.006 mg/kg; the “Quotient: ED 50 of β2-receptor inhibition / ED 50 of β1-receptor inhibition” value is 245; the “Relative quotient, on basis” value was 2.4; the “Relative β1-receptor inhibition” value amounted to 2.5.

As to `CC(CC(O)c1cccnc1)NCC(O)COc1ccc(NC(=O)NC2CCCCC2)cc1` (centres unmarked) [1-(p-Cyclohexylureidophenoxy)-3-(1-hydroxy-1-pyridyl-(3)-butyl3-amino)-propan-2-ol], in test [1], the ED50 was determined as 1.02 mg/kg and the “Relative β2-receptor inhibition” value came out at 3.8. For the same compound, in test [2], the ED50 was determined as 0.003 mg/kg; the “Quotient: ED 50 of β2-receptor inhibition / ED 50 of β1-receptor inhibition” value is 409; the “Relative quotient, on basis” value is 2.9; the “Relative β1-receptor inhibition” value came to 1.3.

Regarding `CCOCCOc1ccc(OCC(O)CNC(C)CC(O)c2cccnc2)cc1` (centres unmarked) [1-(p-Ethoxyethoxy-phenoxy)-3-(1-[pyridyl-3]-1-hydroxy-butyl(3)-amino)-propan-2-ol], in test [1], the ED50 stood at 2.76 mg/kg and the “Relative β2-receptor inhibition” value is given as 10.1. In addition, in test [2], the ED50 was 0.009 mg/kg; the “Quotient: ED 50 of β2-receptor inhibition / ED 50 of β1-receptor inhibition” value is recorded as 296; the “Relative quotient, on basis” value is recorded as 2.7; the “Relative β1-receptor inhibition” value turned out to be 3.8.

For the compound `CCOCc1ccc(OCC(O)CNC(C)CC(O)c2cnc(C)nc2C)cc1` (centres unmarked) [1-(p-Ethoxymethylene-phenoxy)-3-(1-[2,4-dimethyl-pyrimidyl-5]-1-hydroxy-butyl(3)-amino)-propan-2-ol], in test [1], the ED50 came to 2.88 mg/kg and the “Relative β2-receptor inhibition” value was found to be 10.7. Also, in test [2], the ED50 stood at 0.019 mg/kg; the “Quotient: ED 50 of β2-receptor inhibition / ED 50 of β1-receptor inhibition” value was found to be 144; the “Relative quotient, on basis” value came to 1.4; the “Relative β1-receptor inhibition” value is 7.9.

`CCOCc1ccc(OCC(O)CNC(C)CC(O)c2cccnc2)cc1` (centres unmarked) [1-(p-Ethoxymethylene-phenoxy)-3-(1-[pyridyl-3]-1-hydroxy-butyl(3)-amino)-propan-2-ol]: in test [2], the ED50 came out at 0.01 mg/kg and the “Relative β1-receptor inhibition” value was found to be 4.2.

Consider `CCNC(=O)Nc1ccc(OCC(O)CNC(C)CC(O)c2cnc(C)nc2C)cc1` (centres unmarked) [1-(p-Ethylureido-phenoxy)-3-(1-[2,4-dimethyl-pyrimidyl-5-]-1-hydroxy-butyl(3)-amino)-propan-2-ol], for which, in test [1], the ED50 is 12.8 mg/kg and the “Relative β2-receptor inhibition” value is 48.3. Besides, in test [2], the ED50 amounted to 0.093 mg/kg; the “Quotient: ED 50 of β2-receptor inhibition / ED 50 of β1-receptor inhibition” value was 137; the “Relative quotient, on basis” value is reported as 1.2; the “Relative β1-receptor inhibition” value came out at 39.1.

Turning to `CCNC(=O)Nc1ccc(OCC(O)CNC(C)CC(O)c2cccnc2)cc1` (centres unmarked) [1-(p-Ethylureido-phenoxy)-3-(1-[pyridyl-3]-1-hydroxy-butyl(3)-amino)-propan-2-ol], in test [2], the ED50 was found to be 0.013 mg/kg and the “Relative β1-receptor inhibition” value is on record as 5.5.

Regarding `Cc1ncc(C(O)CC(C)NCC(O)COc2ccc(NC(=O)NC(C)C)cc2)c(C)n1` (centres unmarked) [1-(p-Isopropylureido- -phenoxy)-3-(1-[2,4-dimethyl-pyrimidyl-5]-1-hydroxy-butyl(3)-amino)-propan-2-ol], in test [1], the ED50 was determined as 2.71 mg/kg and the “Relative β2-receptor inhibition” value turned out to be 10.2. In test [2], the ED50 was determined as 0.022 mg/kg; the “Quotient: ED 50 of β2-receptor inhibition / ED 50 of β1-receptor inhibition” value amounted to 124; the “Relative quotient, on basis” value is given as 1.1; the “Relative β1-receptor inhibition” value was 9.2.

`COCCCCOc1ccc(OCC(O)CNC(C)CC(O)c2cnc(C)nc2C)cc1` (centres unmarked) [1-(p-Methoxybutoxy-phenoxy)-3-(1-[2,4-dimethyl-pyrimidyl-5]-hydroxy-butyl(3)-amino)-propan-2-ol]: in test [1], the ED50 came to 16 mg/kg and the “Relative β2-receptor inhibition” value was determined as 58.8. Further, in test [2], the ED50 turned out to be 0.089 mg/kg; the “Quotient: ED 50 of β2-receptor inhibition / ED 50 of β1-receptor inhibition” value is 176; the “Relative quotient, on basis” value is given as 1.6; the “Relative β1-receptor inhibition” value amounted to 37.4.

In the case of `CCCOCCOc1ccc(OCC(O)CNC(C)CC(O)c2ccc(C)nc2)cc1` (centres unmarked) [1-(p-[2-n-propoxy-ethoxy]-phenoxy)-3-(1-[2-methyl-pyridyl-5]-1-hydroxy-butyl(3)-amino)-propan-2-ol], in test [1], the ED50 came out at 5.1 mg/kg and the “Relative β2-receptor inhibition” value is on record as 19.2. Moreover, at tracheal β2-receptors (bath concentration reducing isoproterenol effects by 50%, guinea pig trachea, read-out: β2-receptor inhibition, parameter: isolated tracheal chain: ED-50 (converted)), the IC50 is 6.94 µM. For the same compound, the “Relative β2-receptor inhibition” value at tracheal β2-receptors (isolated tracheal chain, guinea pigs) was 7.7. Moreover, in test [2], the ED50 turned out to be 0.035 mg/kg; the “Quotient: ED 50 of β2-receptor inhibition / ED 50 of β1-receptor inhibition” value stood at 146; the “Relative quotient, on basis” value came to 1.3; the “Relative β1-receptor inhibition” value was found to be 14.7. In addition, the “Relative β1-receptor inhibition” value in the test on cardiac β1-receptors (heart rate, guinea pigs) amounted to 3.39. In addition, the “β1-receptor inhibition, parameter: heart rate response to isoproterenol: ED-50” value in the test on cardiac β1-receptors is 0.177 mg/kg.

In the case of `CC(=O)Nc1ccc(OCC(O)CNC(C)C)cc1` (centres unmarked) [4-(2-Hydroxy-3-isopropylamino-propoxy)-acetanilide, reference compound], in the test with cardiac β1-receptors, the “β1-receptor inhibition, parameter: heart rate response to isoproterenol: ED-50” value was 5.3 mg/kg.
